The record followed here is patent US10736898B2, “Positive allosteric modulators of the muscarinic acetylcholine receptor M4” (Vanderbilt University, priority 2017, dated 2020).

The target of one data set is P450 2D6 (Homo sapiens, UniProt P10635). As to the kind of experiment: P450 2D6 inhibition. The data set is classed as in vitro ADME. As to the method: (§1) Compound 1 was evaluated in several well-known in vitro assays to investigate both metabolism and pharmacokinetics. Bidirectional permeability/efflux was determined in MDCK-MDR1 cells, which originate from transfection of Madin Darby canine kidney (MDCK) cells with the MDR1 gene. These assays were performed according to known methods as generally described in the following references: Conde-Ceide et al. ACS Med. Chem. Lett. 2015, 6, 716-720; Morris et al. J. Med. Chem. 2014, 57, 10192-10197; and Bubser et al. ACS Chem. Neurosci. 2014, 5, 920-942.
P450 2D6, sequence (P10635 whole entry): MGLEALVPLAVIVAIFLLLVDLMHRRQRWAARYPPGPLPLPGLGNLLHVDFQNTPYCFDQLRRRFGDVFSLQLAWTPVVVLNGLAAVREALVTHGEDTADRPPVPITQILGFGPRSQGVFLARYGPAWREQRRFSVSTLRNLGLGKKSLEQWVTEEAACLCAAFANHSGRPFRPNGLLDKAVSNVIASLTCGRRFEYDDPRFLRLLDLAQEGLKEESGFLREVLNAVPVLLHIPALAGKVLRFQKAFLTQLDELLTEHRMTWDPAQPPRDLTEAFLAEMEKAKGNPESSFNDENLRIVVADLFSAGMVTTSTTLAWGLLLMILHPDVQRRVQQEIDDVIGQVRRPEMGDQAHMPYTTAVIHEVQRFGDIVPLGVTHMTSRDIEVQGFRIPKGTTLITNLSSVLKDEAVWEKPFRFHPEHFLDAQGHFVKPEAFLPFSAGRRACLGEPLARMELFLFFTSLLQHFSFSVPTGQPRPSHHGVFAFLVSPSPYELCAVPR

The target of another data set is P450 3A4 (Homo sapiens, UniProt P08684). As to the kind of experiment: P450 3A4 inhibition. The data set is classed as in vitro ADME. As to the method:
as §1

The next data set has as its system MDCK-MDR1 cells. Description: Bidirectional permeability/efflux in MDCK-MDR1 cells. Type of data set: in vitro ADME, canine. Conditions: efflux ratio. As to the method:
as §1

The test system of a further data set is MDR1. The description is as above. The data set is classed as in vitro ADME, canine. The conditions noted are these: dog. As to the method: as §1
The next data set addresses P450 2C9 (Homo sapiens, UniProt P11712). As to the kind of experiment: P450 2C9 inhibition. The data set is classed as in vitro ADME. As to the method: as §1
Data set [1] can be described thus: Rat brain:plasma distribution. Type of data set: in vivo. As to the method:
(§2) Compound 1 was evaluated in several in vivo studies to investigate its metabolism and pharmacokinetics.

The next data set is described as follows: Dog Fu (plasma). Type of data set: in vitro ADME. As to the method:
as §1

The nature of another data set: Rat Fu (brain). The data set is classed as in vitro ADME. As to the method: as §1
The target in another data set is T1, Human M4 (Homo sapiens, UniProt P08173).
T1 construct: expressed in transfected cells
T1 sequence (P08173 1-479): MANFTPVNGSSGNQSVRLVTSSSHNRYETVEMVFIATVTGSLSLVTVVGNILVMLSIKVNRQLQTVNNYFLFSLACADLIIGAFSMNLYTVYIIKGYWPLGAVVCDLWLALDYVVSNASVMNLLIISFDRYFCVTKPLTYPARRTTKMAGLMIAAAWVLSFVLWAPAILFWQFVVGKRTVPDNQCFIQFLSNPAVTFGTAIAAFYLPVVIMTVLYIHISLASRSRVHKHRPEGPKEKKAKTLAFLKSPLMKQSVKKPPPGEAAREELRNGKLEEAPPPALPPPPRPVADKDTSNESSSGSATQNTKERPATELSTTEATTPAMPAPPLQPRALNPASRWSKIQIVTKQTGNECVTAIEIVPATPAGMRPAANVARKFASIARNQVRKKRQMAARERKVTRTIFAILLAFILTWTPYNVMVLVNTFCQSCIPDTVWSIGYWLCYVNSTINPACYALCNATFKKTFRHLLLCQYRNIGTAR
Description: mAChR M4 cell-based functional assay (calcium flux, potentiation of EC20 acetylcholine response). (Calcium assays in cells follow changes in intracellular calcium, usually with a dye or a luminescent sensor.)

The nature of the next data set: Human CLint. Type of data set: in vitro ADME. As to the method: as §1
The nature of data set [2]: In vivo pharmacokinetics in dogs (IV and PO). As to the method:
as §2
Dogs (male, Beagle, weighing approximately 8-15 kg, n=2) were dosed intravenously (0.5 mg/kg) via cephalic vein and orally (3 mg/kg) by gavage. Blood samples were collected from the jugular vein via needlestick. Blood samples were obtained at 0.083, 0.25, 0.5, 1, 2, 4, 6, 10, and 24 hours (IV) and 0.25, 0.5, 1, 2, 4, 6, 10, and 24 hours (PO) and plasma harvested for analysis. Sample preparation and bioanalysis was conducted as described above.

The nature of data set [3]: In vivo pharmacokinetics in rats (IV and PO). As to the method: as §2
Male Sprague-Dawley rats (n=2) weighing around 300 g were purchased from Harlon Laboratories (Indianapolis, Ind.) and implanted with catheters in the carotid artery and jugular vein. For intravenous (IV) administration, male Sprague-Dawley rats (n=2) were each administered a single 0.2 mg/kg dose of the test article via a jugular cannula and then blood samples were collected via a carotid artery catheter at 0.033, 0.117, 0.25, 0.5, 1, 2, 4, 7, 12, and 24 hours post-dosing from each animal. For oral (PO) administration, fasted male Sprague-Dawley rats (n=2) were each administered a single 3 mg/kg dose of the test article via oral gavage and then blood samples were collected via a carotid artery catheter at 0.25, 0.5, 1, 2, 4, 7, 12, and 24 hours post-dosing from each animal. Upon sampling, blood was collected into chilled, EDTA-fortified tubes and immediately placed on wet ice. Samples were then centrifuged for 10 minutes at 3500 rcf (at 4° C.) to obtain plasma. The plasma samples were stored at −80° C. until analysis. During the analysis, the samples were thawed on bench at room temperature and 20 μL was transferred to 96-well plate. 120 μL of 50 nM carbamazepine in acetonitrile was added to the plasma sample to precipitate the protein and provide the internal standard. After vortex and centrifugation, 75 μL of supernatant was transferred to another 96-well plate that contained 75 μL of water. 10 μL of the diluted supernatant was injected onto an AB Sciex 4000 or 5500 LC-MS/MS system for quantitation. The detection range for analyte was 0.5 to 5000 ng/mL utilizing a quadratic curve with 1/x^2 weighting. Sciex Analyst 1.4.2 software was used for data acquisition and quantitation. Pharmacokinetic parameters were determined from individual animal data using non-compartmental analysis (Model 201) in WinNonlin (v5.3, Pharsight Corp., Mountain View, Calif.).

The nature of a further data set: Rat CLint. The data set is classed as in vitro ADME. As to the method: as §1
The nature of the next data set: Rat Fu (plasma). The data set is classed as in vitro ADME. As to the method: as §1

SMILES strings stand for the structures.

P450 3A4, sequence (P08684 whole entry): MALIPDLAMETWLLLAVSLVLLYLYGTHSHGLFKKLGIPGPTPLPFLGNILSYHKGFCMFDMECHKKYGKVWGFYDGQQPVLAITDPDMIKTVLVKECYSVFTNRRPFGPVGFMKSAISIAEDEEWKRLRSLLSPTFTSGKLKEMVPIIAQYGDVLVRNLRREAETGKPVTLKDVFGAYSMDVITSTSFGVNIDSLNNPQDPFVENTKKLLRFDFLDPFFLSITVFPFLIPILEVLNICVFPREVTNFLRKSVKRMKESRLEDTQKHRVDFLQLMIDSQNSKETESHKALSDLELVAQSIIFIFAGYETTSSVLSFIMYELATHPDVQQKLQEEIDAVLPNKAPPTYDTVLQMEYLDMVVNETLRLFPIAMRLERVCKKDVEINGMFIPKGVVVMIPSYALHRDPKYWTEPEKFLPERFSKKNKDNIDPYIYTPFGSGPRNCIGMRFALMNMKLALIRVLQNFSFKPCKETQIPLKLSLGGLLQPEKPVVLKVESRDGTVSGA
P450 2C9, sequence (P11712 whole entry): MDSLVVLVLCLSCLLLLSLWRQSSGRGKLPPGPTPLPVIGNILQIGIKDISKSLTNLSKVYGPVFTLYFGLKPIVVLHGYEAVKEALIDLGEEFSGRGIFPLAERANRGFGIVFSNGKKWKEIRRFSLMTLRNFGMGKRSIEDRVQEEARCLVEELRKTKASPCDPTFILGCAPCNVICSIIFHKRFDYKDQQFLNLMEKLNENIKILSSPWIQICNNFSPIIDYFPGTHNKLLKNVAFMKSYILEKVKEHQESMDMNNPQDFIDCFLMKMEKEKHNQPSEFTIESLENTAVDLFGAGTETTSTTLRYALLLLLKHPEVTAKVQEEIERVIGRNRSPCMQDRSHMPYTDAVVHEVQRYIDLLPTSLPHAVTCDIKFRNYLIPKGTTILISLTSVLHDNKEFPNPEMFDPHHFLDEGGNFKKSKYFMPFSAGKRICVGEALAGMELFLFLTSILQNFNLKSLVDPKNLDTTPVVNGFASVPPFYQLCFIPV
Description for Human M4: Human M4 cDNA, along with the chimeric G protein Gqi5, were transfected into Chinese hamster ovary (CHO-K1) cells purchased from the American Type Culture Collection using commercially available Lipofectamine 2000 transfection reagent (Dalby, B. et al., Methods (2004) 33(2), 95-103). hM4-Gqi5 cells were grown in Ham's F-12 medium containing 10% heat-inactivated fetal bovine serum (FBS), 20 mM HEPES, 50 μg/mL G418 sulfate (CAS #108321-42-2), and 500 μg/mL Hygromycin B. rM4-Gqi5 cells were grown in DMEM containing 10% heat-inactivated FBS, 20 mM HEPES, 400 μg/mL G418 sulfate, and 500 μg/mL Hygromycin B.
For high throughput measurement of agonist-evoked increases in intracellular calcium, CHO-K1 cells stably expressing muscarinic receptors were plated in growth medium lacking G418 sulfate and hygromycin at 15,000 cells/20 μL/well in Greiner 384-well black-walled, tissue culture (TC)-treated, clear-bottom plates (VWR). Cells were incubated overnight at 37° C. and 5% CO2. The next day, cells were washed using an ELX 405 (BioTek) with assay buffer; the final volume was then aspirated to 20 μL. […] Dye was removed by washing with the ELX 405 and the final volume was aspirated to 20 μL. Compound master plates were formatted in an 11 point concentration-response curve (CRC) format (1:3 dilutions) in 100% DMSO with a starting concentration of 10 mM using a BRAVO liquid handler (Agilent). Test compound CRCs were then transferred to daughter plates (240 nL) using the Echo acoustic plate reformatter (Labcyte, Sunnyvale, Calif.) and then diluted into assay buffer (40 μL) to a 2× stock using a Thermo Fisher Combi (Thermo Fisher Scientific, Waltham, Mass.).
Calcium flux was measured using the Functional Drug Screening System (FDSS) 6000 or 7000 (Hamamatsu Corporation, Tokyo, Japan) as an increase in the fluorescent static ratio. Compounds were applied to cells (20 μL, 2×) using the automated system of the FDSS at 2-4 seconds into the protocol and the data were collected at 1 Hz. At 144 seconds, 10 μL of an EC20 concentration of the muscarinic receptor agonist acetylcholine was added (5×), followed by the addition of 12 μL of an EC80 concentration of acetylcholine at the 230 second time point (5×). Agonist activity was analyzed as a concentration-dependent increase in calcium mobilization upon compound addition. Positive allosteric modulator activity was analyzed as a concentration-dependent increase in the EC20 acetylcholine response. […] Antagonist activity was analyzed as a concentration-dependent decrease in the EC80 acetylcholine response. Concentration-response curves were generated using a four-parameter logistical equation in XLFit curve fitting software (IDBS, Bridgewater, N.J.) for Excel (Microsoft, Redmond, Wash.) or Prism (GraphPad Software, Inc., San Diego, Calif.).

Turning to `Cc1nc(C)c2c(n1)sc1c(NCc3ccc(C(C)(C)O)cc3)ncnc12` [Compound 1, 2-(4-(((7,9-Dimethylthieno[2,3-d:4,5-d′]dipyrimidin-4-yl)amino)methyl)phenyl)propan-2-ol], the IC50 at P450 2D6 is greater than 30 µM; at P450 3A4, 17 µM; at P450 2C9, 17 µM. Also, the “MDCK-MDR1 ER” value in the data set with MDCK-MDR1 cells is 1.5 (Papp A→B:. This molecule gave a Papp A→B with MDR1 of 46.7 ×10⁻⁶ cm/s. The same molecule showed a Kp in [1] of 0.74. In data set [1] (unbound), this molecule yielded a Kp uu of 0.5. The fraction unbound in the data set “Dog Fu (plasma)” came to 0.072; in “Rat Fu (brain)”, 0.016; in the data set “Rat Fu (plasma)” it was 0.024. Moreover, the Emax at 30 µM at Human M4 (% ACh maximum at 30 μM, human M4) came to 70.4%. Moreover, the EC50 at Human M4 (CHO-K1 cells with human M4 and Gqi5, increase in EC20 acetylcholine response) is 1.25 µM. Also, the values for the CLint scaled in “Human CLint” and in “Rat CLint” were 26 mL/min/kg and 78 mL/min/kg, respectively. Further, the “Dog oral F” value in data set [2] (3 mg/kg PO) is on record as 28%. Also, the half-life was 2.4 h in [2] (male, Beagle, dog, plasma, read-out: Dog Elim. t1/2 (converted)) and 1.9 h in data set [3] (male, Sprague-Dawley, rat, plasma, read-out: Rat Elim. t1/2 (converted)). Further, the clearance stood at 24 mL/min/kg in [2] (male, Beagle, plasma, dog, IV 0.5 mg/kg, read-out: Dog CLp) and 7.1 mL/min/kg in [3] (male, Sprague-Dawley, plasma, rat, IV 0.2 mg/kg, read-out: Rat CLp). The Vd in data set [2] (male, Beagle, plasma, dog, IV 0.5 mg/kg, read-out: Dog Vss) amounted to 2.3 L/kg; in data set [3] (male, Sprague-Dawley, plasma, rat, IV 0.2 mg/kg, read-out: Rat Vss) it was 1.1 L/kg. Besides, in data set [3] (3 mg/kg PO), the “Rat oral F” value is greater than 100%.

What is called IC50 is the midpoint of a concentration-inhibition curve. The Papp A→B is how fast a substance crosses the layer from the apical side. Higher therefore signals ready permeation. Broadly, the Kp is the ratio of the level in a tissue or fluid to that in plasma or blood. In general, fraction unbound refers to the share of the substance not bound to proteins or other matrix. As usually defined, the Emax is the size of the effect at its maximum, as opposed to the concentration needed. Usually EC50 stands for the concentration giving half of the maximal effect. As a reminder, the CLint scaled is the capacity of the preparation to metabolise the compound, expressed as a volume cleared per time.
